Data on seven molecules can be found in US7544377B2, “Chewable compositions with fast release magnolia bark extract” (GIC Innovations Company, priority 2005, dated 2009).

A value given as a limit tells only on which side of the number the result lay.

Assay [1] deals with bacteria from freshly-collected simulated whole saliva (biofilm). Nature of the assay: Mixed culture saliva biofilm on saliva-coated hydroxyapatite discs, timed exposure to actives. Particulars: for % OD reduction (600 nm): Table 8. The assay is classed as cell-based. Here is the method:
Although useful to show the comparative effect of Magnolia Bark Extract on biofilm formation and MIC growth, the foregoing test procedure may not effectively mimic the in vivo exposure of an oral care product to a developing plaque biofilm. In an in vivo situation, the active could be exposed to the plaque for a defined period of time at a set frequency (for example, for 5 minutes, three times a day). Therefore, a series of comparative experiments were conducted to mimic the in vivo use of potential active ingredients. To perform the tests the saliva compositions listed below in Tables 2 and 3 were prepared.
A mixed culture system that utilizes the bacteria from freshly-collected simulated whole saliva was used. Saliva cell pellets were used to inoculate saliva-coated hydroxyapatite (S-HA) discs. The discs were placed in 24-well cell culture plates and incubated for up to 3 days. Biofilms were exposed to actives on days 2 and 3 (starting at 18 hours), and quantified on day 4. The number of bacteria was determined by spectrophotometric absorbance or optical density (OD) at 600 nm. The five phases of the experiment were: pellicle formation; bacterial attachment; biofilm growth; exposure to actives; and bacterial enumeration.
To form the pellicles, HA Discs were ultrasonically washed in deionized water and air-dried, then autoclaved. The discs were placed in a 24-well plate with 1 ml 50% sterile saliva (1 part sterile whole saliva: 1 part saliva buffer, filter sterilize after preparation) for 2 hours on slow agitation at room temperature. The saliva was suctioned and then the discs were transferred to fresh wells for bacterial attachment.
To form the biofilms, the bacterial suspension was removed, and the discs were transferred to fresh wells. One ml of supplemented saliva medium was added and the plate was placed in the incubator for overnight incubation and for the duration of the experiment (up to 72 hours).
A stock solution of 1% Magnolia Bark Extract in 60% ethanol was prepared. Magnolia Bark Extract samples were prepared having a concentration range of 125, 250, 500, and 1000 μg/ml (ppm) in a Phosphate-Buffered-Saline (PBS) solution, where the negative control was PBS and the positive control was CHX having a concentration of 0.12%.
One-ml quantities of active ingredients and controls were placed into fresh wells, and the discs were transferred to these wells for 5 minutes. The chlorhexidine control exposure was one minute, two times a day to mimic the standard mouth-rinse procedure. The exposure to active ingredient was carried out at 8:00 AM, 12:00 and 4:00 PM. After the timed exposure, the solution was removed and the discs washed twice with PBS and then transferred to fresh medium. For some experiments, the medium used during the day was TSB (Tryptic Soy Broth) with a 50 μl 40% sterile sucrose solution added to each well (to give a 2% sucrose solution). The medium was not replaced after the mid-day exposure.
After overnight incubation (day 2), discs were exposed to controls and actives. On day 3 the biofilms were again exposed to tests and controls. On day 4 the discs were removed from the medium, the medium pH was measured to obtain an indication of metabolic activity, and the discs were placed into tubes with 2.5 ml PBS, vortexed for 20 sec, and then placed into the ultrasonic bath for another 20 sec. The suspension was transferred into cuvettes and the bacterial cell density determined by OD measurements at 600 nm.
To evaluate the effect of Magnolia Bark Extract in combination with the surface active agent, sodium lauryl sulfate, five active ingredient solutions were prepared using the procedures described above. […] Also, the MBE solutions were prepared to have a concentration of 500 ppm. Sodium lauryl sulfate was added to two of the Magnolia Bark Extract solutions to obtain SLS concentrations of 0.05% and 0.1% in the Magnolia Bark Extract solutions. […]

Assay [2] concerns incubated saliva. Nature of the assay: MIC of surface active agents and emulsifiers, two-fold broth dilution. The assay is classed as cell-based. The following applies: 24 hours at 37° C., lowest dilution not turbid. The method, then:
(§1) To evaluate the germ-kill efficacy and synergist effect when two or more germ-kill actives are combined, testing was performed to determine the ratio of MBE to surface active agent. The germ-kill active and/or surface active agent were dissolved in ethanol or sterile water to give an initial concentration 0.1% to 1%. The solution was diluted with a nutrient broth to give an initial concentration of 0.05% to 0.5%, which was then serially diluted two-fold so that each subsequent dilution contained 50% of the compound concentration of the previous dilution while maintaining a constant level of nutrients for each dilution. These dilutions were inoculated with representative oral microorganisms, or incubated saliva, and incubated for 24 hours at 37° C. For each surface active agent, the lowest dilution that was not turbid was registered as the MIC. The MBC was determined by transferring 10 microliter of liquid from non-turbid tubes to fresh growth media and incubated for 48 hours.

The subject of assay [3] is S. mutans. Nature of the assay: MIC and fractional inhibitory index of MBE / surface active agent combinations. The assay is classed as cell-based, Streptococcus mutans. The following applies: 24 hours at 37° C. The method, then:
as §1
(1) where an FIC value of less than 1.0 is synergistic, an FIC between 1.0 and 2.0 is additive, and an FIC greater than 2.0 is antagonistic.

Turning to `[H]/N=C(\N/C(=N/[H])NCCCCCCNC(=N)NC(=N)Nc1ccc(Cl)cc1)Nc1ccc(Cl)cc1` [CHX, chlorhexidine], the “pH (medium pH, indication of metabolic activity)” value in assay [1] (Table 5, CHX 0.12%, exposure one minute, two times a day) is listed as 8.8; in assay [1] (Table 7, CHX 0.1% (1000 ppm)) it was 8.8. Moreover, the “% OD reduction (600 nm, compared to PBS control)” value in assay [1] (Table 6, CHX 0.12%, exposure one minute, two times a day) is on record as 84%. For the same molecule, the “% OD reduction (600 nm)” value in assay [1] (CHX 0.1% (1000 ppm)) is reported as 94%.
On to `N=C(NCCCCCCNC(=N)NC(=N)Nc1ccc(Cl)cc1)NC(=N)Nc1ccc(Cl)cc1.O=C(O)[C@H](O)[C@@H](O)[C@H](O)[C@H](O)CO.O=C(O)[C@H](O)[C@@H](O)[C@H](O)[C@H](O)CO` [Chlorhexidine gluconate], for which the “MIC (ppm)” value in assay [2] is listed as 2 ppm. Further, the MIC/ppm in assay [3] came out at 2 ppm.
For `CCCCCCCCCCCCOS(=O)(=O)[O-].[Na+]` [SLS, sodium lauryl sulfate], the “pH (medium pH, indication of metabolic activity)” value in assay [1] (Table 7, SLS 1000 ppm) is 5.7. The “% OD reduction (600 nm)” value in assay [1] (SLS 1000 ppm) was 61%.
Turning to Sodium Brasslate, the “MIC (ppm)” value in assay [2] was found to be 500 ppm.
Same read-out and setting: next, Sodium Stearoyl Lactylate: over 3000 ppm.
The same measure, in the same setting: for Sucrose Distearate the value was over 500 ppm; for Sucrose Stearate, over 500 ppm.
